{"source": "patent US20040180832A1", "about": "“Sustained peptide-release formulation” (Peptech Limited, priority 1996, published 2004)", "origin": "cited, not measured here", "test_system": "advanced prostatic cancer", "settings": "monthly subcutaneous injections", "data": [{"smiles": "CC(C)C[C@H](NC(=O)[C@@H](COC(C)(C)C)NC(=O)[C@H](Cc1ccc(O)cc1)NC(=O)[C@H](CO)NC(=O)[C@H](Cc1c[nH]c2ccccc12)NC(=O)[C@H](Cc1cnc[nH]1)NC(=O)[C@@H]1CCC(=O)N1)C(=O)N[C@@H](CCCNC(=N)N)C(=O)N1CCC[C@H]1C(=O)NNC(N)=O", "note": "[goserelin, 3-[5-oxo-L-prolyl-L-tryptophyl-L-seryl-L-tyrosyl-(3-O-tert-butyl)-D-seryl-L-leucyl-L-arginyl-L-prolyl] cabazamide acetate.]", "values": [{"measurement": "efficacy in advanced prostatic cancer compared with orchiectomy", "value": "as effective as orchiectomy"}, {"measurement": "tolerability", "value": "well tolerated"}]}]}
